Data taken from patent US9115012B2, “Method of improving the water quality in aquatic ecosystems” (Kemin Industries, Inc., priority 2010, dated 2015).

System: Vibrio spp. isolated from shrimp pond water
Assay: Disk diffusion on Vibrio isolation agar (zone of inhibition)
Type: cell-based
Conditions: 10 μl on disk, extract of 20 g powder in 100 ml water, chloramphenicol 25 μg/ml, 37° C.
Protocol: In another experiment, the effect of the nut gall extract on the growth of Vibrio spp. isolated from shrimp pond water was tested. The extract was prepared by adding 20 g of nut gall powder into 100 ml of water, soaking for one hour followed by centrifugation. Chloramphenicol (25 μg/ml) was taken as positive control. Vibrio isolation agar was prepared and the agar plates were cooled to room temperature. Sterile disk was placed in the centre of agar plate, after inoculating Vibrio spp. using a sterile cotton swab. 10 μl of extract/antibiotic was added to the disk and incubated at 37° C. in an incubator.

O=C(N[C@H](CO)[C@H](O)c1ccc([N+](=O)[O-])cc1)C(Cl)Cl [Chloramphenicol]
zone of inhibition at 25 µg/mL: 13 mm
